# Data reported in patent publication US10822318B2, “Lactone-based probes and methods of use thereof” (REGENTS OF THE UNIVERSITY OF MINNESOTA, priority 2017, dated 2020).
# Tests used:
# E. coli = conditions: cited from earlier work
# S. pyogenes = conditions: mice infected with S. pyogenes; cited from earlier work
# [1] = tested on: S. pneumoniae IU1945 PBPs; experiment: Competition assays with Boc-FL for S. pneumoniae IU1945 PBPs; assay type: cell-based; conditions: S. pneumoniae IU1945 cells
# Experimental: The protocol for SDS-PAGE gel preparation was previously described (Kocaoglu, O, et al. (2013) Curr Protoc Chem Biol 5, 239). Briefly, polyacrylamide gels were composed of 10% resolving gel (10.5 ml of 1.5 M Tris-HCl buffer pH 8.8, 10.5 ml of acrylamide:bis-acrylamide 29:1 (40% solution), 21 ml of H2O, 140 μl of 10% APS, 15 μl of tetramethylethylenediamine (TEMED)) and 4.5% stacking gel (2.5 ml of 0.5 M Tris-HCl buffer pH 6.8, 1.125 ml of acrylamide:bis-acrylamide 29:1 (40% solution), 6.375 ml of H2O, 30 μl of 10% APS, 10 μl of TEMED). Running parameters were 180 V, 400 mA, and 60 W for 1.5 h. Experiments to examine competition of acyl homoserine lactones or p-toluenesulfonic acid salts of the β-lactones with Boc-FL were performed with acrylamide:bis-acrylamide ratio of 37.5:1.
# Cells from 1.5 ml of culture were harvested by centrifugation (16,100×g for 2 min at RT) and washed with 1 ml of PBS, pH 7.4. Cell pellets were resuspended in 50 μl of PBS containing 5, 10, and 20 μg/ml of β-lactone p-toluenesulfonic salts and incubated for 40 min at RT. Cells were pelleted and washed in 1 ml of PBS. Next, the cells were resuspended in 50 μl of PBS containing 5 μg/ml Boc-FL and incubated for 10 min at RT. Finally, the cells were resuspended in 100 μl PBS containing 1 or 10 mg/ml lysozyme and incubated for 30 min at 37° C. […]
# PBP2x = biological target: T1, PBP2x (Streptococcus pneumoniae, UniProt P59676); experiment: Methicillin pre-treatment controls, gel-based analysis; assay type: cell-based, S. pneumoniae; conditions: 7FL labeling
# T1 construct: endogenous in cells; host or cells: S. pneumoniae IU1945 and E193 (Δpbp1b)
# Experimental: Cells from 1.5 ml of S. pneumoniae IU1945 and E193 cultures at exponential phase (OD620˜0.2) were harvested by centrifugation (16,100×g for 2 min at RT) and washed with 1 ml of PBS, pH 7.4. Cell pellets were resuspended in 50 μl of PBS containing 0.1 μg/ml of methicillin and incubated for 30 min at RT. Cells were pelleted and washed in 1 ml of PBS. Next, the cells were resuspended in 50 μl of PBS containing 1 or 5 μg/ml of lac-L-Phe-FL or 5 μg/ml Boc-FL (as control) and incubated for 20 min at RT (10 min at RT for Boc-FL). Finally, the cells were resuspended in 100 μl PBS containing 1 or 10 mg/ml lysozyme and incubated for 30 min at 37° C. Cells were lysed and sample preparation for SDS-PAGE gel-based analysis was performed as described.
# S. pneumoniae cells = experiment: 3D-SIM imaging of lactone probe labeled cells; assay type: cell-based; conditions: wild-type and Δpbp1b strains, ≈41 cells examined
# Experimental: Cells from an overnight culture were diluted to OD620 0.02 in 2 ml of fresh BHI prewarmed to 37° C. and incubated at 37° C. in an atmosphere of 5% CO2. At OD620 0.2, 1.5 ml of culture was added to a microfuge tube and centrifuged at room temperature for 5 min at 16000×g. The supernatant was discarded, the pellet was resuspended in 1 ml room temperature PBS, and the culture was centrifuged a second time. The supernatant was discarded and the pellet was resuspended in either 50 μl of PBS with 5 μg mL^−1 7FL or 100 μl PBS with 5 μg mL^−1 8T. The cells were incubated for 20 min at room temperature in the dark. After incubation the cells were spun and washed with 1 ml of PBS (7FL) or 1 ml of PBS containing 50 mM glucose (8T). The cells were spun a second time and washed with 200 μl of PBS (7FL) or 200 μl of PBS with 50 mM glucose (8T), and finally spun a third time and resuspended in 100 μl of cold (4° C.) GTE buffer (50 mM glucose, 20 mM Tris pH 7.5, 1 mM EDTA). The cells were spun down at 4° C., the supernatant was discarded, and the pellet was resuspended in 15 μl of Vectashield Hardest Antifade (Vector Labs) and kept on ice. 1.2 μl of cells in antifade was pipetted onto a clean coverslip, applied to a slide, and imaged via 3D-SIM. 3D-SIM was performed using the OMX 3D-SIM super-resolution system located in the Indiana University Bloomington Light Microscopy Imaging Center (www.indiana.edu/˜lmic/microscopes/index.html#OMX). The system used is equipped with four Photometrics Cascade II EMCCD cameras that allow simultaneous imaging of up to four colors, and is controlled by DV-OMX software, with image processing by Applied Precision softWoRx 6.0.0 software. Exposure times and % T settings for DAPI, Alexa 488, and Alexa 568 images were 5 ms and 100% for all three channels.
# For pre-treatment with methicillin followed by lactone probe labeling, duplicate 2 ml cultures of each strain were created and incubated as described above. At OD620 0.12, methicillin was added to a final concentration of 0.1 μg mL^−1 to one culture for each strain, and the strains were placed back in the incubator. After 20 min, all cultures were harvested, labeled, and imaged as described above.
# For labeling of cells with both lactone probes, the following changes were made: After a 20 min incubation with 7FL, the cells were spun down and washed once in 1 ml of PBS. The cells were spun again and resuspended in 100 μl of 8T in PBS at 5 μg mL^−1. The cells were incubated for 20 min at room temperature in the dark, and then washed and imaged as described above for 8T labeling.
# PBP3 = conditions: cited from earlier work
# PBP1b = conditions: cited from earlier work
# T1 sequence (P59676 whole entry): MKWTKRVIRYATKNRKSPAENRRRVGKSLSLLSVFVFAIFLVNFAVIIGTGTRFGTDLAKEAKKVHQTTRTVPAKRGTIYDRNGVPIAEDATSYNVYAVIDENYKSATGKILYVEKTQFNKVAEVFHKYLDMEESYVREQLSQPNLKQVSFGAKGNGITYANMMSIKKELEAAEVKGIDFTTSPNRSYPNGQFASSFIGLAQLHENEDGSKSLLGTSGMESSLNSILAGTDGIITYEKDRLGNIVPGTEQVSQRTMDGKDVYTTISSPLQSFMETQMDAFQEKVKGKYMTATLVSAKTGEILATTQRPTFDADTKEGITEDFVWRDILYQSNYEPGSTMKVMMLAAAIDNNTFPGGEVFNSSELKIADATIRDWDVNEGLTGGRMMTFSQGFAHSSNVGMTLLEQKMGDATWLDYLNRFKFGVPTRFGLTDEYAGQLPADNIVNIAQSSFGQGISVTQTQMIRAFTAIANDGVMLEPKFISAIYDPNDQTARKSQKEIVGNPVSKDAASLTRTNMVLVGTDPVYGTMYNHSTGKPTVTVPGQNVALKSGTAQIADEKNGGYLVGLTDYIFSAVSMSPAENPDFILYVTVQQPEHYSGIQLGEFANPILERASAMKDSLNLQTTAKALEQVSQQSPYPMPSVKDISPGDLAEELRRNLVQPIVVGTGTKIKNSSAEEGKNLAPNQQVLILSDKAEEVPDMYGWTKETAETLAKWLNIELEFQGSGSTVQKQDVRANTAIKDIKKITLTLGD
compound,measurement,setting,value
"O=C(N[C@@H]1C(=O)O[C@@H]1Cc1ccc([N+](=O)[O-])cc1)c1cccc(O)c1O [Obafluorin, obafluorin]",effect on cell morphology,E. coli,causes cell elongation
same,protection of infected mice,S. pyogenes,provides protection
"CC(=O)N[C@@H]1C(=O)O[C@@H]1C [SQ 26,517]",PBP inhibition (competition with Boc-FL),[1],very weak inhibitor of PBP2a
"COc1cccc(OC)c1C(=O)N[C@@H]1C(=O)N2[C@@H]1SC(C)(C)[C@@H]2C(=O)O [methicillin, reference compound]",PBP2x labeling following methicillin treatment,PBP2x,dramatically decreased
same,methicillin-treated late division cells displaying empty septal rings,S. pneumoniae cells; labeled with 7FL,> 98%
same,methicillin-treated late divisional cells showing empty septal rings,S. pneumoniae cells; labeled with 8T,> 98%
[^3H]benzylpenicillin,deacylation rate,PBP3,5.7e-05 s⁻¹
same,deacylation rate,PBP1b,5.6e-05 s⁻¹
